Source: ChEMBL document CHEMBL4613325, “Design of Development Candidate eFT226, a First in Class Inhibitor of Eukaryotic Initiation Factor 4A RNA Helicase” (J Med Chem, 2020)
pIC50: −log10 of the molar value. Calls of active or inactive are those of the source. No cut-off for these calls is given here.

What was measured:
MDA-MB-231 [1] = assay: Antiproliferative activity against human MDA-MB-231 cells assessed as reduction in cell proliferation incubated for 72 hrs by CellTiter-Glo reagent based assay; assay type: functional; details: MDA-MB-231, 72 h
[2] = Apparent permeability from apical to basolateral side in human Caco2 cells at 10 uM by LC/MS/MS analysis
[3] = Efflux ratio in human Caco2 cells at 10 uM by LC/MS/MS analysis
[4] = molecular target: Voltage-gated inwardly rectifying potassium channel KCNH2 (Homo sapiens, UniProt Q12809); assay: Inhibition of human ERG by patch-clamp assay
Sequence of Voltage-gated inwardly rectifying potassium channel KCNH2 (Q12809 whole entry): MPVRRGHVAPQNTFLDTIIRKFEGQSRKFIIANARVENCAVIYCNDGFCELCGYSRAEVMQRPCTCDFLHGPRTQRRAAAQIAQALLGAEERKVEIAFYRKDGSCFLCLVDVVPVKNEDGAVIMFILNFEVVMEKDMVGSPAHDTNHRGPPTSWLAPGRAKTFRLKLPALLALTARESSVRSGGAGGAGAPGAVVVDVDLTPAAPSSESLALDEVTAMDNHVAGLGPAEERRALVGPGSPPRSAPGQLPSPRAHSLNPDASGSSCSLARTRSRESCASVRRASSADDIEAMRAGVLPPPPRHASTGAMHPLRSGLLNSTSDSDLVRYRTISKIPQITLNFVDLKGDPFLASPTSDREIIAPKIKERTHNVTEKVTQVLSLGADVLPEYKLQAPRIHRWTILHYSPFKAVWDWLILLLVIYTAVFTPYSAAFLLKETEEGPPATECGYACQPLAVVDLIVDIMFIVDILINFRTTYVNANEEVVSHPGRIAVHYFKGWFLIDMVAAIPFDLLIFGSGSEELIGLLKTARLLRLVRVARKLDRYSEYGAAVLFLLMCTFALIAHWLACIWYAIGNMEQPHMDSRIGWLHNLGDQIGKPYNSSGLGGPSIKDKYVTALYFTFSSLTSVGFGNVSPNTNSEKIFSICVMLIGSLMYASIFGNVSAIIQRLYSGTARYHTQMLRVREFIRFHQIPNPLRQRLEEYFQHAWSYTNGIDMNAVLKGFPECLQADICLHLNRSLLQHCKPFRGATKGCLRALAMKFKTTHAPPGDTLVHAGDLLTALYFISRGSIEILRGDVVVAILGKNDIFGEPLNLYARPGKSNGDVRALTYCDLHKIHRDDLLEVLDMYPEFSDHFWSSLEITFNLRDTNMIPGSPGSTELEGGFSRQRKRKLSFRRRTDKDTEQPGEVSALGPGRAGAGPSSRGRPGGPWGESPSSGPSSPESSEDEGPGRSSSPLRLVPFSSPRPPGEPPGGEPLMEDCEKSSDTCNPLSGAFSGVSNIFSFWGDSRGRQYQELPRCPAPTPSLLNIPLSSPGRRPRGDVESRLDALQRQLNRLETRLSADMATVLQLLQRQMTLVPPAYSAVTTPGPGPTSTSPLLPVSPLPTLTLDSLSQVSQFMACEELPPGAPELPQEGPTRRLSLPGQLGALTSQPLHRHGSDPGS

[5] = Clearance in iv dosed rat; assay type: ADME, organism-based; details: in vivo
[6] = Volume of distribution at steady state in iv dosed rat; assay type: ADME, organism-based; details: in vivo, read-out: Vdss
[7] = Half life in iv dosed rat; assay type: ADME, organism-based; details: in vivo
[8] = AUC in iv dosed rat; assay type: ADME, organism-based; details: in vivo
[9] = molecular target: T1, Eukaryotic initiation factor 4A-I (Homo sapiens, UniProt P60842); assay: Inhibition of eIF4A1 in human MDA-MB-231 cells assessed as inhibition of cellular-translation incubated for 4 hrs by specific tandem sequence motif repeat AGAGAG in 5'- UTR containing luciferase reporter gene assay; assay type: cell-based
T1 sequence (P60842 whole entry): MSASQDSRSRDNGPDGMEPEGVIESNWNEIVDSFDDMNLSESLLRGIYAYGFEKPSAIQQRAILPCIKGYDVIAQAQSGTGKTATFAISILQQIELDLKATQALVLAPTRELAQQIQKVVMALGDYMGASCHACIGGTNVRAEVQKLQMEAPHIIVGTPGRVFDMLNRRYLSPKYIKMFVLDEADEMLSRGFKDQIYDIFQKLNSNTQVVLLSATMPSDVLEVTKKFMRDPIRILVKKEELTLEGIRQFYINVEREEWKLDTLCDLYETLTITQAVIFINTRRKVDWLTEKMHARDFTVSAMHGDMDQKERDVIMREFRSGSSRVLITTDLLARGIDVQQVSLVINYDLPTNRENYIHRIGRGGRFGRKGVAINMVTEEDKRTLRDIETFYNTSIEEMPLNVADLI

[10] = molecular target: T1, Eukaryotic initiation factor 4A-I; assay: Inhibition of eIF4A1 in human MDA-MB-231 cells assessed as inhibition of cellular-translation incubated for 4 hrs by specific tandem sequence motif repeat GGCGGC in 5'- UTR containing luciferase reporter gene assay; assay type: cell-based
[11] = molecular target: T1, Eukaryotic initiation factor 4A-I; assay: Inhibition of eIF4A1 in human MDA-MB-231 cells assessed as inhibition of cellular-translation incubated for 4 hrs by specific tandem sequence motif repeat CCGCCG in 5'- UTR containing luciferase reporter gene assay; assay type: cell-based
[12] = molecular target: T1, Eukaryotic initiation factor 4A-I; assay: Inhibition of eIF4A1 in human MDA-MB-231 cells assessed as inhibition of cellular-translation incubated for 4 hrs by specific tandem sequence motif repeat CAACAA in 5'- UTR containing luciferase reporter gene assay; assay type: cell-based
[13] = molecular target: T1, Eukaryotic initiation factor 4A-I; assay: Binding affinity to full length recombinant eIF4A1 (unknown origin) assessed as induction ternary complex formation in presence of AGAGAG by measuring half life for AGAGAG + ATP complex formation SPR assay
[14] = molecular target: T1, Eukaryotic initiation factor 4A-I; assay: Binding affinity to full length recombinant eIF4A1 (unknown origin) assessed as induction ternary complex formation in presence of AGAGAG by measuring half life for AGAGAG + AMP-PNP complex formation SPR assay
[15] = molecular target: T1, Eukaryotic initiation factor 4A-I; assay: Binding affinity to full length recombinant eIF4A1 (unknown origin) assessed as induction ternary complex formation in presence of DNA oligo sequences by measuring Kd for DNA oligo sequences + ATP complex formation SPR assay
[16] = molecular target: T1, Eukaryotic initiation factor 4A-I; assay: Inhibition of eIF4A1 in human HAP1 cells assessed as reduction in c-MYC protein expression at 5 to 50 nM incubated for 24 hrs by Western blot analysis; assay type: cell-based
[17] = molecular target: T1, Eukaryotic initiation factor 4A-I; assay: Inhibition of eIF4A1 in human HAP1 cells assessed as reduction in MCL-1 protein expression at 5 to 50 nM incubated for 24 hrs by Western blot analysis; assay type: cell-based
[18] = molecular target: T1, Eukaryotic initiation factor 4A-I; assay: Inhibition of eIF4A1 in human HAP1 cells assessed as reduction in Cyclin D1 protein expression at 5 to 50 nM incubated for 24 hrs by Western blot analysis; assay type: cell-based
HAP1 [19] = assay: Inhibition of eIF4A1 F163L mutant in human HAP1 cells assessed as reduction in c-MYC protein expression at 5 to 50 nM incubated for 24 hrs by Western blot analysis; assay type: cell-based
HAP1 [20] = assay: Inhibition of eIF4A1 F163L mutant in human HAP1 cells assessed as reduction in MCL-1 protein expression at 5 to 50 nM incubated for 24 hrs by Western blot analysis; assay type: cell-based
HAP1 [21] = assay: Inhibition of eIF4A1 F163L mutant in human HAP1 cells assessed as reduction in Cyclin D1 protein expression at 5 to 50 nM incubated for 24 hrs by Western blot analysis; assay type: cell-based
Homo sapiens = species: Homo sapiens; assay: Inhibition of L-type calcium channel diltiazem binding site (unknown origin) at 10 uM relative to control
MDA-MB-231 [22] = assay: Induction of cell cycle arrest in human MDA-MB-231 cells assessed as increase in G2/M population incubated for 24 hrs by LIVE/DEAD fixable dead cell staining based flow cyclometry; assay type: functional
MDA-MB-231 [23] = assay: Induction of apoptosis in human MDA-MB-231 cells assessed as increase in apoptotic cells level incubated for 24 hrs by annexin V and propidium iodide staining based flow cyclometry; assay type: functional, cell-based
MDA-MB-231 [24] = assay: Induction of apoptosis in human MDA-MB-231 cells assessed as increase in dead cells level incubated for 24 hrs by annexin V and propidium iodide staining based flow cyclometry; assay type: functional, cell-based
[25] = molecular target: T1, Eukaryotic initiation factor 4A-I; assay: Inhibition of eIF4A1 in human MDA-MB-231 cells assessed as reduction in cyclin D1 protein expression at 10 to 100 nM incubated for 24 hrs by Western blot analysis; assay type: cell-based
[26] = molecular target: T1, Eukaryotic initiation factor 4A-I; assay: Inhibition of eIF4A1 in human MDA-MB-231 cells assessed as reduction in BCL2 protein expression at 10 to 100 nM incubated for 24 hrs by Western blot analysis; assay type: cell-based
[27] = Stability in rat liver microsomes assessed as parent compound remaining at 1 uM pre-incubated for 10 mins before NADPH addition and measured after 30 mins by LC/MS/MS analysis; assay type: ADME, Microsome; details: read-out: Stability
[28] = Stability in human liver microsomes assessed as parent compound remaining at 1 uM pre-incubated for 10 mins before NADPH addition and measured after 30 mins by LC/MS/MS analysis; assay type: ADME, Microsome; details: read-out: Stability
hERG (KCNH2) = hERG (KCNH2) (Homo sapiens, UniProt Q12809); assay: Inhibition of human ERG at 10 uM by patch-clamp assay relative to control
Sequence of hERG (KCNH2) (Q12809 whole entry): as the sequence (Q12809 whole entry) above

## COc1cncc2c1[C@]1(O)[C@H](O)[C@H](CN(C)C)[C@@H](c3ccccc3)[C@]1(c1ccc(C#N)cc1)O2 (stereo in doubt; (-)-37)
MDA-MB-231 [1]
  pIC50: 7.27
[2]; Caco-2, Papp
  Papp A→B at 10 µM: 0.21 ×10⁻⁶ cm/s
[3]; Caco-2, Ratio
  efflux ratio at 10 µM: 22
[4]
  pIC50: < 5.00
[5]
  clearance: 39 mL/min/kg
[6]
  Vd: 5.2 L/kg
[7]
  half-life: 2.9 h
[8]
  AUC: 440 ng·h/mL

## COc1cncc2c1[C@]1(O)[C@H](O)[C@H](C(=O)N(C)C)[C@@H](c3ccccc3)[C@]1(c1ccc(C#N)cc1)O2.Cl
physchem
  solubility thermodynamic: 0.22 mg/mL

## COc1nc(C#N)cc2c1[C@]1(O)[C@H](O)[C@H](CN(C)C)[C@@H](c3ccccc3)[C@]1(c1ccc(C#N)cc1)O2
MDA-MB-231 [1]
  pIC50: 7.82
[5]
  clearance: 26 mL/min/kg
[6]
  Vd: 10.3 L/kg
[7]
  half-life: 11 h
[8]
  AUC: 730 ng·h/mL

## C[C@H]1C[C@@]2(O[C@H]3C[C@H]4[C@@H]5CC[C@H]6C[C@H](O)CC[C@]6(C)[C@H]5[C@@H](O)C[C@]4(C)[C@H]3[C@@]2(C)O)OC1(C)C [HIPPURISTANOL]
[9]
  pIC50: 6.37
[10]
  pIC50: 6.43
[11]
  pIC50: 6.68
[12]
  pIC50: 6.69

## COc1cncc2c1[C@]1(O)[C@H](O)[C@H](CN(C)C)[C@@H](c3ccccc3)[C@]1(c1ccc(C#N)cc1)O2.Cl
physchem
  solubility thermodynamic: > 20 mg/mL

## COc1cc2c(c(OC)n1)[C@]1(O)[C@H](O)[C@H](CN(C)C)[C@@H](c3ccccc3)[C@]1(c1ccc(C#N)cc1)O2
[13]
  T1/2: 1.32 min
[14]
  T1/2: 0.642 h
[15]
  Activity: inactive
[9]
  inhibition: Dose-dependent effect
[10]
  inhibition: Dose-dependent effect
[11]
  inhibition: Dose-dependent effect
[12]
  inhibition: Dose-dependent effect
[16]
  inhibition: Dose-dependent effect
[17]
  inhibition: Dose-dependent effect
[18]
  inhibition: Dose-dependent effect
HAP1 [19]
  inhibition: inactive
HAP1 [20]
  inhibition: inactive
HAP1 [21]
  inhibition: inactive
Homo sapiens
  inhibition: 54%
MDA-MB-231 [22]
  Activity: Dose-dependent effect
MDA-MB-231 [23]
  Activity: Dose-dependent effect
MDA-MB-231 [24]
  Activity: Dose-dependent effect
[25]
  inhibition: Active
[26]
  inhibition: Active

## COc1cc2c(c(OC)n1)[C@]1(O)[C@H](O)[C@H](CN(C)C)[C@@H](c3ccccc3)[C@]1(c1ccc(C#N)cc1)O2.Cl
physchem
  solubility thermodynamic: > 20 mg/mL

## CCN(CC)C[C@H]1[C@@H](O)[C@@]2(O)c3c(OC)cncc3O[C@@]2(c2ccc(C#N)cc2)[C@@H]1c1ccccc1
MDA-MB-231 [1]
  pIC50: 7.21
[2]; Caco-2
  Papp A→B at 10 µM: 0.3 ×10⁻⁶ cm/s
[3]; Caco-2
  efflux ratio at 10 µM: 35
[27]
  remaining at 0.5 h, 1 µM: 76%
[28]
  remaining at 0.5 h, 1 µM: 73%
hERG (KCNH2)
  inhibition at 10 µM: 40%

## COc1cncc2c1[C@]1(O)[C@H](O)[C@H](CN(C)C(C)(C)C)[C@@H](c3ccccc3)[C@]1(c1ccc(C#N)cc1)O2
MDA-MB-231 [1]
  pIC50: 6.85
[2]; Caco-2
  Papp A→B at 10 µM: 0.1 ×10⁻⁶ cm/s
[3]; Caco-2
  efflux ratio at 10 µM: 57
[27]
  remaining at 0.5 h, 1 µM: 77%
[28]
  remaining at 0.5 h, 1 µM: 61%
hERG (KCNH2)
  inhibition at 10 µM: 16%

## CNC[C@H]1[C@@H](O)[C@@]2(O)c3c(OC)cncc3O[C@@]2(c2ccc(C#N)cc2)[C@@H]1c1ccccc1 (racemic)
MDA-MB-231 [1]
  pIC50: 6.32
[2]; Caco-2, Papp
  Papp A→B at 10 µM: 0.3 ×10⁻⁶ cm/s
[3]; Caco-2, Ratio
  efflux ratio at 10 µM: 3.9
[27]
  remaining at 0.5 h, 1 µM: 90%
[28]
  remaining at 0.5 h, 1 µM: 98%
hERG (KCNH2)
  inhibition at 10 µM: < 10%

## COc1cncc2c1[C@]1(O)[C@H](O)[C@H](CCN(C)C)[C@@H](c3ccccc3)[C@]1(c1ccc(C#N)cc1)O2 (racemic)
MDA-MB-231 [1]
  pIC50: 6.84
[2]; Caco-2
  Papp A→B at 10 µM: 0.1 ×10⁻⁶ cm/s
[3]; Caco-2
  efflux ratio at 10 µM: 27
[27]
  remaining at 0.5 h, 1 µM: 77%
[28]
  remaining at 0.5 h, 1 µM: 75%
hERG (KCNH2)
  inhibition at 10 µM: 11%

## C[C@@H]1C[C@@H]([C@H](O)CC2CC(=O)NC(=O)C2)C(=O)[C@@H](C)C1 [CYCLOHEXIMIDE]
[9]
  pIC50: 6.65
[10]
  pIC50: 7.00
[11]
  pIC50: 7.06
[12]
  pIC50: 6.85

## COc1cncc2c1[C@]1(O)[C@H](O)[C@H](C(=O)N(C)C)[C@@H](c3ccccc3)[C@]1(c1ccc(C#N)cc1)O2
MDA-MB-231 [1]
  pIC50: 7.48
[2]; Caco-2
  Papp A→B at 10 µM: 0.65 ×10⁻⁶ cm/s
[3]; Caco-2
  efflux ratio at 10 µM: 5
[5]
  clearance: 18 mL/min/kg
[6]
  Vd: 1.1 L/kg
[7]
  half-life: 2 h
[8]
  AUC: 950 ng·h/mL
